Results: patent US20090280194A1, “USE OF NITROXYL (HNO) FOR THE TREATMENT OF CANCERS OVEREXPRESSING MAT-8” (priority 2008, published 2009)
Like-named read-outs stand apart in the source and are kept apart here.

Experiments:
[1] = test system: LNCaP (androgen dependent) prostate tumor cells; experiment: Growth inhibition of prostate tumor cells, modified MTT assay; assay type: cell-based
Protocol: (§1) PC3 cells (filled circles) are hormone independent cells, whereas, LNCaP (opend circles) are hormone dependent cells. Y-axis indicates percentage of cell growth as measured by a modified MTT assay. X-axis in the concentration (mM) of Angeli's salt added every 24 hrs for a total of 72 hours.
(§2) A characteristic feature of PC3 (androgen independent) and LNCaP (androgen dependent) prostate tumor cells is the overexpression of an intrinsic plasma membrane Na^+/K^+ pump regulatory protein, MAT-8. As described above, overexpression of MAT-8 is a property shared with breast, pancreatic and lung carcinomas. The growth inhibition of PC3 and LNCaP cells by nitroxyl (HNO) donated by Angeli's salt (AS) was investigated.
(§3) PC3 (2500 cells/well) and LNCaP (4000 cells/well) cells were cultured in 200 μl of incubation media in each well of a 96-well assay plate 24 hours prior to the addition of AS. Following an overnight incubation at 37° C., appropriate AS concentrations were added to each well from a fresh stock solution of 0.5 M AS (Na2N2O3) in 10 mM NaOH (added to stabilize AS) diluted to 30 mM with cell culture medium. AS/HNO was added every 24 hours for a total of 72 hours. Cell viability was assayed using the MTT assay, a colorimetric method performed with minor modification according to the procedure of Mossman (1983) J. Immunol. Methods 65:55-63.

[2] = test system: PC3 (androgen independent) prostate tumor cells; experiment: as above; assay type: cell-based
Protocol: as §1, §2, §3

SERCA2a = biological target: T1, SERCA2a (Canis lupus familiaris, UniProt O46674); experiment: EGTA-induced dephosphorylation (E2P hydrolysis) in native cardiac SR vesicles, quenched-flow mixing; assay type: biochemical, dog; conditions: 0.25 mM AS, 24° C.
T1 construct: native cardiac SR vesicles isolated from dog heart; from tissue; host or cells: dog heart, sarcoplasmic reticulum vesicles
T1 sequence (P61012 whole entry partner): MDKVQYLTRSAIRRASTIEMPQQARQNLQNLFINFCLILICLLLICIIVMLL
T1 sequence (O46674 whole entry): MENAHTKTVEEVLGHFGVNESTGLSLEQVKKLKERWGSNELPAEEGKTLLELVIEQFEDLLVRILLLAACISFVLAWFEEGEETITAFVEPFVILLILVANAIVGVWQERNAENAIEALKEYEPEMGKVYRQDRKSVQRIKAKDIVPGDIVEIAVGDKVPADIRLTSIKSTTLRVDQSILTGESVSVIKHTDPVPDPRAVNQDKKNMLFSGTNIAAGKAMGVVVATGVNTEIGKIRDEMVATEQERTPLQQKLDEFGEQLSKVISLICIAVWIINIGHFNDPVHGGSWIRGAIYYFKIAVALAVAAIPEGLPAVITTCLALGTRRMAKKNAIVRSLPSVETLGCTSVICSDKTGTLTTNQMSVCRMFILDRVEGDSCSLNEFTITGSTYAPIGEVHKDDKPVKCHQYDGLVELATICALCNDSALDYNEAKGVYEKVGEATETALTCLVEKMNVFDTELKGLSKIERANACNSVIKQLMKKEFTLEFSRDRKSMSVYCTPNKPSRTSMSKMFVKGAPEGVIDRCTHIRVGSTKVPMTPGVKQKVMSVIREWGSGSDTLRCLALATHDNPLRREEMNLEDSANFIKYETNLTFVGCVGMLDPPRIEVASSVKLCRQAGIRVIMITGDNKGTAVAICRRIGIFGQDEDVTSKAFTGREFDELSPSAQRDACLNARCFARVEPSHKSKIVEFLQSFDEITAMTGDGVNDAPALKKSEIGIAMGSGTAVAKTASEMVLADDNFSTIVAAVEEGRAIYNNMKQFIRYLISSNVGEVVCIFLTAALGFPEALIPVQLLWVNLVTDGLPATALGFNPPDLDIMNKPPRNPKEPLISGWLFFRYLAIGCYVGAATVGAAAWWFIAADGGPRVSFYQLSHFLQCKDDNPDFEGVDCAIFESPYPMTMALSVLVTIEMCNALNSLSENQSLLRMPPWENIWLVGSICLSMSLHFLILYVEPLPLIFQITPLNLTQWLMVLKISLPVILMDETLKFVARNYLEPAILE
Description: Y-axis indicates the level of E2P (nmol/mg), which undergoes hydrolysis in step 6 of FIG. 3. X-axis indicates time following addition of Angeli's salt (sec). The inset figure represents a normalized comparison of E2P hydrolysis in the presence (+AS) or absence (−AS) of Angeli's salt.
Investigations of the mechanism of the cardiac muscle sarcoplasmic reticulum (SR) Ca^2+ pump (SERCA2a) have provided a paradigm for understanding how the interaction of nitroxyl with a regulatory protein (phospholamban) can activate the pump. SERCA2a is a P-type cation pump, i.e., it utilizes ATP as its energy source for uphill Ca^2+ transport and becomes phosphorylated by ATP during the catalytic cycle (FIG. 3). Regulation of its activity by the small intrinsic cardiac SR membrane protein, phospholamban (PLB), involves primarily steps 6 and 8 which are rate-limiting in the overall transport cycle and control Vmax (steps 6 and 8) and the affinity of the cytoplasmic Ca^2+ transport sites, Km (step 8). Mahaney et al. (2005) Biochemistry 44:7713-7724 and Antipenko et al. (1997) Biochemistry 36:12903-12910. […]
SERCA2a was initially phosphorylated at the catalytic site using 10 μM [γ^32P]ATP and then subsequently dephosphorylated by chasing with 5 mM EGTA. […] In the absence of AS/HNO, E2P decay measured at 24° C. by quenched-flow mixing in dog cardiac SR is slow ([…]) and monophasic (FIG. 4).

SERCA2a + PLB (WT) = biological target: T2, SERCA2a + PLB (WT) (Canis lupus familiaris, UniProt O46674+P61012); experiment: E2P hydrolysis in Sf21 ER microsomes after EGTA chase; assay type: biochemical
T2 construct: made in house; host or cells: Sf21 insect cells (baculovirus), ER microsomes
T2 sequence (P61012 whole entry): as the sequence (P61012 whole entry partner) above
T2 sequence (O46674 whole entry): as the sequence (O46674 whole entry) above
Description: (§4) Nitroxyl (HNO) donated by Angeli's salt (AS) enhances intracellular Ca^2+ cycling in isolated cardiac myocytes by activating Ca^2+ release from ryanodine (RyR2) receptors and Ca^2+ re-uptake by the SR Ca^2+ pump. Tocchetti et al. (2007) Circ. Res. 100:96-104. In cardiac SR vesicles, activation of Ca^2+ uptake by HNO involves a direct interaction with the pump and is accompanied by enhanced dephosphorylation of the cardiac Ca^2+-ATPase isozyme, SERCA2a. To determine whether HNO interacts with SERCA2a or its regulatory protein, phospholamban (PLB) and to characterize the protein site(s) modified by HNO, activation of SERCA2a dephosphorylation by nitroxyl using SERCA2a and PLB (WT and mutant) expressed in Sf21 cell ER microsomes (baculovirus system) was investigated. Brief exposure of SERCA2a+WT PLB to 0.25 mM AS produced a 10-fold stimulation of dephosphorylation (0.5 s^−1→5 s^−1) following an EGTA chase (Table 2). […] Exposure to dithiothreitol (2 mM DTT) reversed the activation of dephosphorylation by nitroxyl, similar to its effect on HNO-induced activation of Ca^2+ release from the RyR2 receptor. Tocchetti et al. (2007) Circ. Res. 100:96-104.

SERCA2a + PLB (−C) = biological target: T3, SERCA2a + PLB (−C) (Homo sapiens, UniProt P16615+P26678, C36A/C41A/C46A); experiment: as above; assay type: biochemical
T3 construct: made in house; host or cells: Sf21 insect cells (baculovirus), ER microsomes
T3 sequence (P16615 1-997 isoform P16615-2, stated change not applied): as the sequence (O46674 whole entry) above, with S376T, K403N, P538S, V544I, N576H, S661N, S713A, D877E, L963V counted along it
T3 sequence (P26678 whole entry C36A/C41A/C46A): as the sequence (P61012 whole entry partner) above, with D2E, N27K, C36A, C41A, C46A counted along it
Description: as §4

SERCA2a alone = experiment: as above; assay type: biochemical; conditions: 0.25 mM AS
Description: as §4

SR Ca^2+ pump (SERCA2a) = biological target: T4, SR Ca^2+ pump (SERCA2a) (Mus musculus, UniProt O55143); conditions: brief exposure to AS (0.25 mM); SR vesicles from mouse heart; cited from earlier work
T4 construct: Using SR vesicles prepared from mouse heart; host or cells: mouse heart SR vesicles
T4 sequence (P61014 whole entry partner): as the sequence (P61012 whole entry partner) above, with D2E counted along it
T4 sequence (O55143 1-998 isoform O55143-2): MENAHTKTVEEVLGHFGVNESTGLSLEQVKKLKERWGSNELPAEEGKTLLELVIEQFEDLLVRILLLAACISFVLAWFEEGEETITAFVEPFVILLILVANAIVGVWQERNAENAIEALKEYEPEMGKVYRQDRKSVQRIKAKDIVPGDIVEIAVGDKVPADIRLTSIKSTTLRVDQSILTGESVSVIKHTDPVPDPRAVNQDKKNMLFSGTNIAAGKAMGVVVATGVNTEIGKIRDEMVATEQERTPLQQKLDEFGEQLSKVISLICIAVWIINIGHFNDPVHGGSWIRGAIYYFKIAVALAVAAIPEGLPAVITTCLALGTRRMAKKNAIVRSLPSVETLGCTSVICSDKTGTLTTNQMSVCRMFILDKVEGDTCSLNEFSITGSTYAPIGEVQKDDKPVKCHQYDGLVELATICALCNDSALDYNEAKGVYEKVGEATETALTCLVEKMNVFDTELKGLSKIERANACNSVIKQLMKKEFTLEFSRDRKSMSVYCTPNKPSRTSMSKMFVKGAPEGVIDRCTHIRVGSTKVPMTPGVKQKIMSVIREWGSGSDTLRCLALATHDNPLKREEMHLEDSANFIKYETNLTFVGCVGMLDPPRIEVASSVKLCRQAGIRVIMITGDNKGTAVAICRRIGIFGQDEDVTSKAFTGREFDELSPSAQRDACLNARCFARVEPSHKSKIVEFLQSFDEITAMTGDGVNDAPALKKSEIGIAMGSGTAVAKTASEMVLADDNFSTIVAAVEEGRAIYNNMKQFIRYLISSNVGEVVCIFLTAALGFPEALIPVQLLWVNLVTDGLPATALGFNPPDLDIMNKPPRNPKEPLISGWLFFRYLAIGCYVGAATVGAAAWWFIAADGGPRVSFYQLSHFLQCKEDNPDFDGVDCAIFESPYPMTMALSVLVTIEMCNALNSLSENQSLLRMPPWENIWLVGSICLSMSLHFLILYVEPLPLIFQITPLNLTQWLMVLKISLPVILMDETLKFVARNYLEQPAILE

[3] = cited from earlier work
cells = conditions: cited from earlier work
[4] = AS added every 24 h for 72 h, read-out: Experiment 2 (EC50)
[5] = AS added every 24 h for 72 h, read-out: Experiment 3 (EC50)
[6] = mean of 3 independent experiments, read-out: Mean EC50
[7] = range given for both cell lines, read-out: EC50 growth inhibition over a series of three separate experiments

[Na+].[Na+].[O-][N+]([O-])=NO [Angeli's salt] gave an EC50 ([1]; AS added every 24 h for 72 h, read-out: Experiment 1 (EC50)) of 3000 µM, an EC50 [1, 4] of 900 µM and an EC50 [1, 5] of 1200 µM. For the same compound, the EC50 [1, 6] was 1700 µM, the EC50 ([1]; mean of experiments 2 and 3 only (experiment 1 left out), read-out: Mean EC50) was 1050 µM and the EC50 [1, 7] was 1000 to 1700 µM. For the same compound, the EC50 ([2]; AS added every 24 h for 72 h, 50% growth inhibition, read-out: Experiment 1 (EC50)) was 1400 µM, the EC50 [2, 4] was 700 µM and the EC50 [2, 5] was 1400 µM. The EC50 [2, 6] was 1170 µM, the EC50 [2, 7] was 1000 to 1700 µM and the “E2P decay, accelerated initial decay phase” value (SERCA2a; without AS 11 s^−1) was 77 s⁻¹. The E2P decay pattern (SERCA2a; without AS monophasic) was “biphasic decay pattern”, the “A1 (%) amplitude fast phase” value (SERCA2a + PLB (WT); 0.25 mM AS, 0° C.) was 11% and the “A2 (%) amplitude slow phase” value (SERCA2a + PLB (WT); 0.25 mM AS, 0° C.) was 89%. For the same compound, the “k1” value (SERCA2a + PLB (WT); 0.25 mM AS, 0° C.) was 5.00 s⁻¹, the “k2” value (SERCA2a + PLB (WT); 0.25 mM AS, 0° C.) was 0.154 s⁻¹ and the dephosphorylation rate (SERCA2a + PLB (WT); 0.25 mM AS, EGTA chase, from 0.5 s^−1 without AS) was 5 s⁻¹. The stimulation of dephosphorylation (SERCA2a + PLB (WT); brief exposure to 0.25 mM AS, EGTA chase) was 10 fold, the “A1 (%) amplitude fast phase” value (SERCA2a + PLB (−C); 0.25 mM AS, 0° C.) was 100% and the “k1” value (SERCA2a + PLB (−C); 0.25 mM AS, 0° C.) was 0.18 s⁻¹. The “stimulation of dephosphorylation by nitroxyl” value (SERCA2a + PLB (−C); mutant PLB, all 3 transmembrane cysteines Cys→Ala) was “no stimulation”, the “A1 (%) amplitude fast phase” value (SERCA2a alone; 0° C.) was 23% and the “A2 (%) amplitude slow phase” value (SERCA2a alone; 0° C.) was 77%. The “k1” value (SERCA2a alone; 0° C.) was 4.64 s⁻¹, the “k2” value (SERCA2a alone; 0° C.) was 0.174 s⁻¹ and the stimulation of dephosphorylation (SERCA2a alone; microsomes expressing SERCA2a alone) was “No additional stimulation”. The “effect on Ca^2+ uptake” value (SR Ca^2+ pump (SERCA2a)) was “activates Ca^2+uptake”, the water solubility [3] was “highly water soluble” and the cell permeation (cells) was “rapidly permeates cells”.
